In patent EP0165151A1, “Peptide derivatives as renin inhibitors, process for their preparation and their therapeutical application” (SANOFI, priority 1984, dated 1985):
Square brackets hold non-standard residues; d marks the D form. Peptide text beside a SMILES is read from it. * marks the point of attachment. Sta = CC(C)C[C@H](N)[C@@H](O)CC(=O)O; Isovaleryl = CC(C)CC(=O)*; Nle = CCCC[C@H](N)C(=O)O

Experiment: Solubility in water
Format: physicochemical
Settings: pH : 7,4
Text: Dans les mêmes conditions les composés SR 42406 sous forme de chlorhydrate et SR 43054 B possèdent une solubilité dans l'eau de 1 % et 4 % environ.

Row | solubilité dans l'eau | solubilité dans l'eau (sous forme de chlorhydrate) | SMILES
1 | ~4% | – | CCCC[C@H](NC(=O)[C@H](Cc1ccccc1)NC(=O)CC(C)C)C(=O)N[C@@H](CC(C)C)[C@@H](O)CC(=O)N[C@@H](C)C(=O)N[C@@H](CC(C)C)[C@@H](O)CC(=O)N[C@@H](CC(=O)O)C(=O)O [SR 43504 B, iVa-Phe-Nle-Sta-Ala-Sta-Asp-OH, Disel de trishydroxyméthyl-aminométhane] (Isovaleryl-F[Nle][Sta]A[Sta]D-OH)
2 | soluble dans l'eau à environ % | – | CCCC[C@H](NC(=O)[C@H](Cc1ccccc1)NC(=O)CC(C)C)C(=O)N[C@@H](CC(C)C)[C@@H](O)CC(=O)N[C@@H](C)C(=O)N[C@@H](CC(C)C)[C@@H](O)CC(=O)N[C@@H](CCCCN)C(=O)O [SR 42 654, iVa - Phe - Nle - Sta - Ala - Sta - Lys - OH] (Isovaleryl-F[Nle][Sta]A[Sta]K-OH)
3 | – | ~1% | CCCC[C@H](NC(=O)[C@H](Cc1ccccc1)NC(=O)CC(C)C)C(=O)N[C@@H](CC(C)C)[C@@H](O)CC(=O)N[C@@H](C)C(=O)N[C@@H](CC(C)C)[C@@H](O)CC(=O)N[C@@H](CCCNC(=N)N)C(=O)OC [SR 42406, iVa - Phe - Nle - Sta - Ala - Sta - Arg - OMe] (Isovaleryl-F[Nle][Sta]A[Sta]R-OMe)
